Measured values reported in PMC10224544, “Synthesis, Structural Elucidation and Pharmacological Applications of Cu(II) Heteroleptic Carboxylates” (Pharmaceuticals, 2023).

How the values were obtained:
DPPH scavenging assay [1] = conditions: for DPPH Free Radical Scavenging Ability: mean ± S.E.M, n = 3
Excerpt: The antioxidant potential of the free acids and their Cu(II) carboxylates was explored via the DPPH method using ascorbic acid as a reference. The DPPH, with a single unpaired electron, is capable of accepting a hydrogen or electron and gives a strong absorption at 517 nm. The absorption generally decreases when it accepts a hydrogen or electron from an antioxidant, forming a stable molecule. The results given in Table 5 indicate that the compounds under study show a moderate level of antioxidant potential. This activity may be attributed to the various structural and electronic factors like coordination geometry, redox properties, chelate ring size, degree of unsaturation, etc.. The transfer of proton or electron from an antioxidant to DPPH results in the formation of species that undergo other reactions like coupling, fragmentation, and addition, which affect the rate and stoichiometry of the reaction.
The compounds under study were subjected to DPPH scavenging ability test as per cited literature. A 0.004% solution of reagent DPPH was added to the different concentrations of tested compounds (i.e., 125, 250, 500 and 1000 μg/mL) and the reaction mixture was incubated subsequently for about thirty minutes in dark. Ascorbic acid was used as positive control. The UV-3000 O.R.I. Germany was used to record the change in absorption of the reaction mixture at 517 nm and the percentage scavenging ability of the compounds under study was determined using formula: % scavenging activity =Absorbance of control−Absorbance of compounds /Absorbance of control×100
The experiments were repeated thrice. The GraphPad Prism® (version 4.0, Sandiego, CA, USA) was used to calculate the IC50 values.

[2] = Hydrogen peroxide scavenging assay; conditions: for H2O2 free radical scavenging ability: mean ± S.E.M, n = 3
Description: In addition to DPPH the ligand acids and their complexes were also evaluated for their peroxide scavenging ability test. Hydrogen peroxide (H2O2) is a biologically important, non-radical reactive oxygen species (ROS) that can influence several cellular processes. It is a weak oxidizing agent and can inactivate a few enzymes directly, usually via oxidation of essential thiol (-SH) groups. It can cross cell membranes rapidly, and inside the cell, H2O2 probably reacts with Fe^2+ (and possibly Cu^2+) ions to form the hydroxyl radical, which may be the origin of many of its toxic effects. It is, therefore, biologically advantageous for cells to control the amount of hydrogen peroxide that is allowed to accumulate.
The ligand acids and their Cu(II) carboxylates were further subjected to H2O2 scavenging ability test potential by following the procedure as per cited literature. A 2 mM solution of H2O2 was made in 50 mM phosphate buffer having a pH 7.4. In the next step, 0.1 mL of the screened compounds was added to the 0.3 mL (50 mM) of phosphate buffer, then 0.6 mL of H2O2 was added and the solution was vortexed. After following the incubation period of 10 min, the absorption was 230 nm in comparison to the blank.

[3] = target: acetylcholinesterase (AChE) (Electrophorus electricus, UniProt O42275); assay: biochemical; assay type: biochemical; conditions: for Inhibition of Acetylcholinesterase (%AChE Activity): n = 3
Description: The synthesized compounds were evaluated for acetylcholinesterase (ACh) and butyrylcholinesterase (BCh) enzyme inhibitory activities.
(§1) The enzymes acetylcholinesterase (AChE) and butyrylcholinesterase (BChE) play an important role in the transfer of signals and physiological function. They assist acetylcholine to hydrolyze and produce choline and acetyl group in synaptic region. So, they are considered as targets in the management of Alzheimer’s disease. Herein, the compounds under study were evaluated for their potential to inhibit acetylthiocholine iodide (AChI) and butyrylthiocholine iodide (BChI) enzymes.
(§2) The well-known Ellman’s assay was implemented to evaluate the inhibitory potential using acetylthiocholine iodide (AChI) and butyrylthiocholine iodide (BChI) as substrates, respectively. The basic principle of the assay is the hydrolysis of acetylthiocholine iodide and butyrylthiocholine iodide by their corresponding enzymes, resulting in the formation of 5-thio-2-nitrobenzoate anion.
(§3) To carry out the assay, 0.1 M buffer solution with pH 8 was prepared as per the cited literature where the pH was adjusted using KOH (potassium hydroxide). Using the freshly prepared buffer and following the dilution, final concentrations of 0.03 U/mL for AChE (518 U/mg solid) and 0.01 U/mL for BChE (7–16 U/mg) were obtained. […] After that, the final solution of each of the AChE and BChE was prepared in distilled water in the presence of […] DTNB and were stored at 8 °C. The experiment was performed by taking 205 µL of inhibitor (tested compound) along with 5 µL of prepared solutions of enzymes, followed by the addition of 5 μL DTNB reagent. They were then incubated for about 15 min in a water bath at a temperature of 30 °C. Later on, 5 µL substrate solution was added to them which were subjected to absorption check at 412 nm. […] The temperature of the spectrophotometer was adjusted at 30 °C and then, following the reaction time of 4 min, the absorbance values were noted after regular intervals. The experiment was repeated, and change in absorption with time was used to calculate the percentage activity of enzyme and enzyme inhibitor [59]. The p values, or calculated probability levels, are categorized as: 5% (p < 0.05), 1% (p < 0.01) and 0.1% (p < 0.001). p < 0.05 means statistically significant and p < 0.001 means highly statistically significant.

[4] = target: butyrylcholinesterase (BChE) (Equus caballus, UniProt P81908); assay: biochemical; conditions: for inhibition of butyrylcholinesterase (% BChE activity): n = 3
Description: as §1, §2, §3

DPPH scavenging assay [5] = conditions: Comp. Conc. 62.5 µg/mL; mean ± S.E.M, n = 3
[6] = read-out: Inhibition of Acetylcholinesterase (%AChE Activity)
[7] = read-out: inhibition of butyrylcholinesterase (% BChE activity)

acetylcholinesterase (AChE), sequence (O42275 24-633): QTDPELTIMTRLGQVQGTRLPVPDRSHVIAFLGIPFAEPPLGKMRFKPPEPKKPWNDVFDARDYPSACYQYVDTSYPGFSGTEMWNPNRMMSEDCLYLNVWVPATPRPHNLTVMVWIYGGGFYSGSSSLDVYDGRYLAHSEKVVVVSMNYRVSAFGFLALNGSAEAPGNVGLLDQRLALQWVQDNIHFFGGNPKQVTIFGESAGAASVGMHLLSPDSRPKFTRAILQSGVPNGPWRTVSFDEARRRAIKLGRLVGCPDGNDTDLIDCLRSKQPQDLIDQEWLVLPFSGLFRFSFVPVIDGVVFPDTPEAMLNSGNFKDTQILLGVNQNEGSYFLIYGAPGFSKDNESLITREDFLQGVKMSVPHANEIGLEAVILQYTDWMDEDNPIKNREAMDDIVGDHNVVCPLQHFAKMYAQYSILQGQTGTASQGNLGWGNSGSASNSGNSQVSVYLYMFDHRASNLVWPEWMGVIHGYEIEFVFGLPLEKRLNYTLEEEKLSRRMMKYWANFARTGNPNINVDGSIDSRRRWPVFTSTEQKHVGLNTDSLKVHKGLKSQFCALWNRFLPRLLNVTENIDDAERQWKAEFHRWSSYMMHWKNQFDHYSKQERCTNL
butyrylcholinesterase (BChE), sequence (P81908 whole entry): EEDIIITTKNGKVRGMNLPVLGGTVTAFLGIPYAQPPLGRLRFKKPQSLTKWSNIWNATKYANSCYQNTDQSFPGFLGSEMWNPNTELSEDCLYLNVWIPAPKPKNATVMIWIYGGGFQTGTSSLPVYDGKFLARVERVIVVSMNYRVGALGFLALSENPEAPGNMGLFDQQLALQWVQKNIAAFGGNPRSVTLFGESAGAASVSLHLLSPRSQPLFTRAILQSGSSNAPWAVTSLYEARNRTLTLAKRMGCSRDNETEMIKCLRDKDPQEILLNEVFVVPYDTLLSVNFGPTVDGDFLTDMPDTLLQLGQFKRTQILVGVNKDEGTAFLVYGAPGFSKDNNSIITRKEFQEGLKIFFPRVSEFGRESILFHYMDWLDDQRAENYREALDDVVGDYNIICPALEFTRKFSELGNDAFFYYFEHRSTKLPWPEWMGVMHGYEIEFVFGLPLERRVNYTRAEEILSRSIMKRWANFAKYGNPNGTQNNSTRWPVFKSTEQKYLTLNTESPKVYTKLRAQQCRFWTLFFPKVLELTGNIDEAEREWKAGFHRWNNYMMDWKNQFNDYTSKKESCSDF

## N#Cc1cccnc1.N#Cc1cccnc1.O=C([O-])Cc1cccc(Cl)c1.O=C([O-])Cc1cccc(Cl)c1.O=C([O-])Cc1cccc(Cl)c1.O=C([O-])Cc1cccc(Cl)c1.[Cu+2].[Cu+2] [Complex 4, Cu2(3-ClC6H4COO)4(3-CNPy)2]
DPPH scavenging assay [1]
  IC50, DPPH Free Radical Scavenging Ability: 8.45 µg/mL
DPPH scavenging assay [1]; Comp. Conc. 125 µg/mL
  DPPH Free Radical Scavenging Ability: 68.30 ± 0.64 %
DPPH scavenging assay [1]; Comp. Conc. 250 µg/mL
  DPPH Free Radical Scavenging Ability: 73.34 ± 0.63 %
DPPH scavenging assay [1]; Comp. Conc. 500 µg/mL
  DPPH Free Radical Scavenging Ability: 78.30 ± 0.64 %
DPPH scavenging assay [1]; Comp. Conc. 1000 µg/mL
  DPPH Free Radical Scavenging Ability: 83.17 ± 0.72 %
[2]
  IC50, H2O2 free radical scavenging ability: 8.71 µg/mL
[2]; Comp. Conc. 62.5 µg/mL
  H2O2 free radical scavenging ability: 63.47 ± 0.56 %
[2]; Comp. Conc. 125 µg/mL
  H2O2 free radical scavenging ability: 67.74 ± 0.61 %
[2]; Comp. Conc. 250 µg/mL
  H2O2 free radical scavenging ability: 73.67 ± 0.61 %
[2]; Comp. Conc. 500 µg/mL
  H2O2 free radical scavenging ability: 78.76 ± 0.58 %
[2]; Comp. Conc. 1000 µg/mL
  H2O2 free radical scavenging ability: 85.00 ± 0.30 ^⸸ %
[3]
  IC50, Inhibition of Acetylcholinesterase: 6 µg/mL
[3]; Comp. Conc. 62.5 µg/mL
  Inhibition of Acetylcholinesterase (%AChE Activity): 67.90 ± 1.16 %
[3]; Comp. Conc. 125 µg/mL
  Inhibition of Acetylcholinesterase (%AChE Activity): 72.34 ± 0.55 %
[3]; Comp. Conc. 250 µg/mL
  Inhibition of Acetylcholinesterase (%AChE Activity): 78.36 ± 0.49 ^⸸ %
[3]; Comp. Conc. 500 µg/mL
  Inhibition of Acetylcholinesterase (%AChE Activity): 83.39 ± 0.49 %
[3]; Comp. Conc. 1000 µg/mL
  Inhibition of Acetylcholinesterase (%AChE Activity): 89.39 ± 0.60 %
[4]
  IC50, inhibition of butyrylcholinesterase: 03 µg/mL
[4]; Comp. Conc. 62.5 µg/mL
  inhibition of butyrylcholinesterase (% BChE activity): 68.52 ± 0.38 %
[4]; Comp. Conc. 125 µg/mL
  inhibition of butyrylcholinesterase (% BChE activity): 72.64 ± 0.16 %
[4]; Comp. Conc. 250 µg/mL
  inhibition of butyrylcholinesterase (% BChE activity): 77.61 ± 1.70 %
[4]; Comp. Conc. 500 µg/mL
  inhibition of butyrylcholinesterase (% BChE activity): 81.94 ± 0.45 %
[4]; Comp. Conc. 1000 µg/mL
  inhibition of butyrylcholinesterase (% BChE activity): 86.47 ± 0.22 ^⸸ %
DPPH scavenging assay [5]
  DPPH Free Radical Scavenging Ability: 61.93 ± 1.13 %

## N#Cc1ccncc1.N#Cc1ccncc1.O=C([O-])Cc1cccc(Cl)c1.O=C([O-])Cc1cccc(Cl)c1.O=C([O-])Cc1cccc(Cl)c1.O=C([O-])Cc1cccc(Cl)c1.[Cu+2].[Cu+2] [Complex 5, Cu2(3-ClC6H4COO)4(4-CNPy)2]
DPPH scavenging assay [1]
  IC50, DPPH Free Radical Scavenging Ability: 20.29 µg/mL
DPPH scavenging assay [1]; Comp. Conc. 125 µg/mL
  DPPH Free Radical Scavenging Ability: 64.78 ± 0.60 %
DPPH scavenging assay [1]; Comp. Conc. 250 µg/mL
  DPPH Free Radical Scavenging Ability: 71.46 ± 0.53 %
DPPH scavenging assay [1]; Comp. Conc. 500 µg/mL
  DPPH Free Radical Scavenging Ability: 77.68 ± 0.63 %
DPPH scavenging assay [1]; Comp. Conc. 1000 µg/mL
  DPPH Free Radical Scavenging Ability: 85.72 ± 0.79 %
[2]
  IC50, H2O2 free radical scavenging ability: 27.35 µg/mL
[2]; Comp. Conc. 62.5 µg/mL
  H2O2 free radical scavenging ability: 59.81 ± 0.65 %
[2]; Comp. Conc. 125 µg/mL
  H2O2 free radical scavenging ability: 66.65 ± 0.78 %
[2]; Comp. Conc. 250 µg/mL
  H2O2 free radical scavenging ability: 75.70 ± 0.62 %
[2]; Comp. Conc. 500 µg/mL
  H2O2 free radical scavenging ability: 80.76 ± 0.63 %
[2]; Comp. Conc. 1000 µg/mL
  H2O2 free radical scavenging ability: 84.83 ± 0.62 %
[3]
  IC50, Inhibition of Acetylcholinesterase: 5 µg/mL
[3]; Comp. Conc. 62.5 µg/mL
  Inhibition of Acetylcholinesterase (%AChE Activity): 69.91 ± 1.30 %
[3]; Comp. Conc. 125 µg/mL
  Inhibition of Acetylcholinesterase (%AChE Activity): 71.76 ± 0.61 %
[3]; Comp. Conc. 250 µg/mL
  Inhibition of Acetylcholinesterase (%AChE Activity): 76.87 ± 1.27 %
[3]; Comp. Conc. 500 µg/mL
  Inhibition of Acetylcholinesterase (%AChE Activity): 82.13 ± 0.20 ^⸸ %
[3]; Comp. Conc. 1000 µg/mL
  Inhibition of Acetylcholinesterase (%AChE Activity): 89.20 ± 0.23 %
[4]
  IC50, inhibition of butyrylcholinesterase: 04 µg/mL
[4]; Comp. Conc. 62.5 µg/mL
  inhibition of butyrylcholinesterase (% BChE activity): 72.74 ± 0.61 %
[4]; Comp. Conc. 125 µg/mL
  inhibition of butyrylcholinesterase (% BChE activity): 76.54 ± 0.50 %
[4]; Comp. Conc. 250 µg/mL
  inhibition of butyrylcholinesterase (% BChE activity): 81.48 ± 0.64 %
[4]; Comp. Conc. 500 µg/mL
  inhibition of butyrylcholinesterase (% BChE activity): 86.86 ± 0.60 %
[4]; Comp. Conc. 1000 µg/mL
  inhibition of butyrylcholinesterase (% BChE activity): 91.62 ± 0.74 %
DPPH scavenging assay [5]
  DPPH Free Radical Scavenging Ability: 55.56 ± 0.52 %

## O=C(O)Cc1cccc(Cl)c1 [L^2, 3-chlorophenyl acetic acid]
[3]
  IC50: 234 µM
[3]; [6]
  inhibition at 62.5 µg/mL: 50.35 ± 0.11%
  inhibition at 125 µg/mL: 54.02 ± 0.24%
  inhibition at 250 µg/mL: 57.34 ± 0.35%
  inhibition at 500 µg/mL: 62.29 ± 0.32%
  inhibition at 1000 µg/mL: 65.39 ± 0.4%
[4]
  IC50: 234 µM
[4]; [7]
  inhibition at 62.5 µg/mL: 58.15 ± 0.22%
  inhibition at 125 µg/mL: 63.4 ± 0.71%
  inhibition at 250 µg/mL: 68.39 ± 0.35%
  inhibition at 500 µg/mL: 73.42 ± 0.12%
  inhibition at 1000 µg/mL: 77.73 ± 0.03%
